Experimental data as given in PMC7777204, “Locking mixed-lineage kinase domain-like protein in its auto-inhibited state prevents necroptosis” (Proceedings of the National Academy of Sciences of the …, 2020).

Key:
U937 cells = experiment: U937 necroptosis assay; type: cell-based; conditions: Homo sapiens, U-937, huTNFα plus 10 µM zVAD-fmk, read-out: U937 NEC IC50
Method: (§1) For the Jurkat FADD^−/− Necroptosis assay, compounds were serially diluted in 100% dimethyl sulfoxide (DMSO) (Sigma-Aldrich catalog no. 41641), and 250 nL was transferred to a sterile 384-well microtiter plate (PerkinElmer catalog no. 6007688) via Echo liquid handler (LABCYTE). Five thousand Jurkat FADD ^−/− cells (ATCC catalog no. CRL-2572) in 20 µL of modified Roswell Park Memorial Institute medium (Gibco catalog no. 10491), 10% fetal calf serum (Gibco catalog no. 100500), 1x Anti/Anti (Gibco catalog no. 15240-062), 1x L-Glutamax (Gibco catalog no. 35050-087), and 1% PenStrep (SIGMA catalog no. P4333) were seeded into each well of the prepared assay plate with compound. Cells and compounds were incubated for 30 min at 37 °C (humidified incubator with 5% CO2). After incubation, 5 µL of recombinant human TNFα (huTNFα) (Biotrend catalog no. cyt-223; 10 ng/mL final concentration [f.c.]) was added to the cells, followed by an incubation of 24 h at 37 °C. Following the incubation, the experimental plates were equilibrated to room temperature (30 min) before 25 µL of Cell Titer Glo Luminescent Cell Viability Assay System reagent (Promega catalog no. G7571) was added to the plate wells, incubated at room temperature for ∼10 min. After incubation, the samples were analyzed for luminescence by using an Envision reader (PerkinElmer).
(§2) Each assay plate contained wells with “high” and “low” controls. High controls (100% CTL) were defined as cells treated with DMSO, and low controls (0% CTL) were defined as cells treated with 10 ng/mL recombinant huTNFα. IC50 values were calculated based on the percentage of control values using a four-parameter-fitting model.
MLKL antagonists were also evaluated in a necroptosis assay with U937 cells ([26]) (ATCC catalog no. CRL-1593.2). The assay procedure with U937 cells was as described for the Jurakt FADD^−/− necroptosis assay with the following modifications: 8,000 cells were seeded per well, and, in addition to the recombinant huTNFα, cells were also incubated in the presence of 10 µM (f.c.) carbobenzoxy-valyl-alanyl-aspartyl-[O-methyl]-fluoromethylketone (zVAD-fmk) (Enzo Life Sciences catalog no. ALX-260-020). Low controls (0% CTL) were defined as cells treated with 100 ng/mL recombinant huTNFα plus 10 µM zVAD-fmk.
(§3) All cellular assays were done for Cpd 1, Cpd 2, Cpd 3, Cpd 4, and Cpd 5 in duplicate and in quadruplet for NSA.

Jurkat FADD−/− cells [1] = experiment: Jurkat FADD−/− cytotox assay; type: cell-based; conditions: Homo sapiens, without huTNFα, Cell Titer Glo viability, read-out: Jurkat TOX IC50
Method: as §1
MLKL antagonists were tested in cytotox assays by using Jurkat FADD^−/− and U937 cells according to the assay procedures described for the necroptosis assays, but without treatment with recombinant huTNFα and/or zVAD-fmk. High controls (100% CTL, no effect) were defined as cells treated with DMSO, and low controls (0% CTL) were defined as medium without cells (0% CTL, maximal effect).
as §3

Jurkat FADD−/− cells [2] = experiment: Jurkat FADD−/− necroptosis assay; type: cell-based; conditions: Homo sapiens, 10 ng/mL huTNFα, 24 h, Cell Titer Glo viability, read-out: Jurkat NEC IC50
Method: as §1, §2, §3

MLKL executioner domain = target: T1, MLKL executioner domain (Homo sapiens, UniProt Q8NB16); experiment: NMR diffusion experiments (hydrodynamic radius); type: biochemical
T1 construct: 80 µM MLKL N-terminal executioner domain (residues 1 to 154) was used; GST (thrombin cleavage site) (cleaved yes)
T1 sequence (Q8NB16 1-154): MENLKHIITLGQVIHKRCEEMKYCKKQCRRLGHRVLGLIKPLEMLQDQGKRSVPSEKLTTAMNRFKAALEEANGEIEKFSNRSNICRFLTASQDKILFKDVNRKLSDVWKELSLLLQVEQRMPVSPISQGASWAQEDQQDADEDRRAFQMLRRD
Method: To further characterize the oligomerized MLKL executioner domain, NMR diffusion experiments were conducted directly succeeding the end of the real-time NMR series (orange dots in Fig. 5A). This was compared with a fresh sample of unliganded MLKL executioner domain (black dots in Fig. 5A).
In a next step, we conducted NMR diffusion experiments with NM concentrations above and below the critical micelle concentration of 6 mM, to find out if the increased hydrodynamic radius of the MLKL executioner domain is dependent on the presence of micelles. […] The presence of 500 µM IP6 and 500 µM Cpd 3 had no influence on the hydrodynamic radius of NM (SI Appendix, Fig. S12). […] Therefore, the oligomerization depends on micelles, and the observed species is most likely a micelle-integrated oligomeric MLKL executioner domain. […]
NMR diffusion experiments were recorded as pseudo two-dimensional experiments with varying gradient strength either as a ^15N-filtered NMR experiment ([42]) (recorded with ^15N-labeled protein). […]
where d is the diffusion constant. […] The hydrodynamic radius was calculated by using the determined diffusion constants of the component of interest (d) and dioxane (ddioxane) and the known hydrodynamic radius of dioxan (2.12 Å) ([23]) using Eq. 4. rH=2.12Å⋅ddioxane/d, [4] […]

Oligomeric state of the MLKL executioner domain (MLKL executioner domain; 12 mM NM + 500 µM IP6 + 500 µM Cpd 3, after 2 d of incubation, 57 Å without compound): completely monomeric
Hydrodynamic radius of the MLKL executioner domain (MLKL executioner domain; complex with 500 µM Cpd 3, 12 mM NM + 50 µM IP6, after time course, 60 Å without Cpd 3, 19 Å unliganded): 30 Å
SMILES: Cn1c(=O)c2c(nc(S(C)(=O)=O)n2C)n(CC#Cc2cccc(O)c2)c1=O [Cpd 3]
IC50 (U937 cells): 271 nM
IC50 (Jurkat FADD−/− cells [1]): 13600 nM
IC50 (Jurkat FADD−/− cells [2]): 541 nM
